Assay results as given in patent publication US20150361139A1, “CRYSTALLINE FORM OF LINACLOTIDE” (SANDOZ AG, priority 2013, published 2015).
Where two headings read alike, the source gives them in different places. Peptide text beside a SMILES is read from it.

How the values were obtained:
[1] = 40° C./75% RH, according to U.S. Pat. No. 8,222,201 (WO 2010/059733), cited from earlier work
[2] = Stability tests: solid stored in open vials at 40° C./75% RH, purity by HPLC; assay type: physicochemical; settings: for Normalised purity: 40° C./75% RH, open vial
Experimental: The purity of solid samples was measured in area percentage by HPLC analysis using the method reported below:
Approximately 10 mg of material was placed in each vial (ea. 1.5 mL, open, clear glass vial).
Three vials were placed into a beaker which was then stored in a sealed desiccator containing a sodium chloride solution which keeps a constant 75% RH. The desiccator was placed into an oven at 40° C.
One vial at a time was taken out after 7 days, 14 days and 1 month and analysed.
Ovens were temperature monitored using calibrated thermometers with min and max temperatures recorded throughout the stability study.

SMILES	Normalised purity ([1]; Day 7) [%]	Normalised purity ([1]; Day 14) [%]	Normalised purity ([1]; Month 1) [%]	Normalised purity ([2]; Day 7) [%]	Normalised purity ([2]; Day 14) [%]	Normalised purity ([2]; Month 1) [%]	Susceptibility to degradation (chemical stability) compared with form alpha ([2]; open atmosphere of 75% RH and 40° C.)
C[C@@H]1NC(=O)[C@@H]2CCCN2C(=O)[C@H](CC(N)=O)NC(=O)[C@@H]2CSSC[C@H](N)C(=O)N[C@H]3CSSC[C@H](NC1=O)C(=O)N[C@@H]([C@@H](C)O)C(=O)NCC(=O)N[C@H](C(=O)N[C@@H](Cc1ccc(O)cc1)C(=O)O)CSSC[C@H](NC(=O)[C@H](Cc1ccc(O)cc1)NC(=O)[C@H](CCC(=O)O)NC3=O)C(=O)N2 [Form Alpha, Linaclotide] (HELM PEPTIDE1{C.C.E.Y.C.C.N.P.A.C.T.G.C.Y}$PEPTIDE1,PEPTIDE1,1:R3-6:R3|PEPTIDE1,PEPTIDE1,2:R3-10:R3|PEPTIDE1,PEPTIDE1,5:R3-13:R3$$$V2.0)	100	94.8	91.9	–	–	–	–
C[C@@H]1NC(=O)[C@@H]2CCCN2C(=O)[C@H](CC(N)=O)NC(=O)[C@@H]2CSSC[C@H](N)C(=O)N[C@H]3CSSC[C@H](NC1=O)C(=O)N[C@@H]([C@@H](C)O)C(=O)NCC(=O)N[C@H](C(=O)N[C@@H](Cc1ccc(O)cc1)C(=O)O)CSSC[C@H](NC(=O)[C@H](Cc1ccc(O)cc1)NC(=O)[C@H](CCC(=O)O)NC3=O)C(=O)N2 [Form II, Linaclotide] (HELM PEPTIDE1{C.C.E.Y.C.C.N.P.A.C.T.G.C.Y}$PEPTIDE1,PEPTIDE1,1:R3-6:R3|PEPTIDE1,PEPTIDE1,2:R3-10:R3|PEPTIDE1,PEPTIDE1,5:R3-13:R3$$$V2.0)	–	–	–	100	100	98.9	less susceptible to degradation than form alpha
